Assay results as given in PubChem BioAssay (NCI).
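Cultured in 96-well plates, cells were exposed to test compound for 48 hours across five concentrations. GI50: concentration for 50% inhibition of growth. TGI: total growth inhibition.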

What was measured:
Assay in all cases: NCI anticancer screen, dose series, 48 h
OVCAR-5 ovarian = tested on: OVCAR-5 ovarian
NCI-H522 lung = tested on: NCI-H522 lung
NCI-H460 lung = tested on: NCI-H460 lung
UACC-257 melanoma = tested on: UACC-257 melanoma
T-47D breast = tested on: T-47D breast
SK-OV-3 ovarian = tested on: SK-OV-3 ovarian
K-562 leukemia = tested on: K-562 leukemia
U251 CNS = tested on: U251 CNS
SR leukemia = tested on: SR leukemia
HCT-15 colon = tested on: HCT-15 colon
SK-MEL-28 melanoma = tested on: SK-MEL-28 melanoma
SK-MEL-5 melanoma = tested on: SK-MEL-5 melanoma
IGROV1 ovarian = tested on: IGROV1 ovarian
HCT-116 colon = tested on: HCT-116 colon
SK-MEL-2 melanoma = tested on: SK-MEL-2 melanoma
MCF7 breast = tested on: MCF7 breast
OVCAR-8 ovarian = tested on: OVCAR-8 ovarian
DU-145 prostate = tested on: DU-145 prostate
KM12 colon = tested on: KM12 colon
MALME-3M melanoma = tested on: MALME-3M melanoma
RPMI-8226 leukemia = tested on: RPMI-8226 leukemia
COLO 205 colon = tested on: COLO 205 colon
HOP-92 NSCLC = tested on: HOP-92 NSCLC
UO-31 renal = tested on: UO-31 renal
UACC-62 melanoma = tested on: UACC-62 melanoma
TK-10 renal = tested on: TK-10 renal
CCRF-CEM leukemia = tested on: CCRF-CEM leukemia
RXF 393 renal = tested on: RXF 393 renal
ACHN renal = tested on: ACHN renal
MDA-MB-231 breast = tested on: MDA-MB-231 breast
SF-268 CNS = tested on: SF-268 CNS
SNB-75 CNS = tested on: SNB-75 CNS
SF-539 CNS = tested on: SF-539 CNS
MDA-MB-468 breast = tested on: MDA-MB-468 breast
LOX IMVI melanoma = tested on: LOX IMVI melanoma
A549 NSCLC = tested on: A549 NSCLC
CAKI-1 renal = tested on: CAKI-1 renal
OVCAR-4 ovarian = tested on: OVCAR-4 ovarian
MDA-MB-435 = tested on: MDA-MB-435
SN12C renal = tested on: SN12C renal
HL-60(TB) leukemia = tested on: HL-60(TB) leukemia
HT29 colon = tested on: HT29 colon
A498 renal = tested on: A498 renal
NCI-H226 lung = tested on: NCI-H226 lung
MOLT-4 leukemia = tested on: MOLT-4 leukemia
NCI-H23 lung = tested on: NCI-H23 lung
SW-620 colon = tested on: SW-620 colon
M14 melanoma = tested on: M14 melanoma
HCC-2998 colon = tested on: HCC-2998 colon
BT-549 breast = tested on: BT-549 breast
786-0 renal = tested on: 786-0 renal
NCI/ADR-RES ovarian = tested on: NCI/ADR-RES ovarian
SF-295 CNS = tested on: SF-295 CNS
EKVX NSCLC = tested on: EKVX NSCLC
OVCAR-3 ovarian = tested on: OVCAR-3 ovarian
SNB-19 CNS = tested on: SNB-19 CNS
HS 578T breast = tested on: HS 578T breast
PC-3 prostate = tested on: PC-3 prostate
HOP-62 NSCLC = tested on: HOP-62 NSCLC

COc1ccc(Cc2nn(CC(=O)N/N=C/c3ccc(F)cc3)c(=O)c3c(C)noc23)cc1
GI50 (OVCAR-5 ovarian): 7.18 µM
TGI (OVCAR-5 ovarian): 25.1 µM
GI50 (NCI-H522 lung): 10.4 µM
TGI (NCI-H522 lung): 31.2 µM
GI50 (NCI-H460 lung): 3.27 µM
TGI (NCI-H460 lung): 11.3 µM
GI50 (UACC-257 melanoma): 6.33 µM
TGI (UACC-257 melanoma): 29.1 µM
GI50 (T-47D breast): 2.24 µM
TGI (T-47D breast): 5.88 µM
GI50 (SK-OV-3 ovarian): 1.99 µM
TGI (SK-OV-3 ovarian): 3.97 µM
GI50 (K-562 leukemia): 31.4 µM
TGI (K-562 leukemia): > 100 µM
GI50 (U251 CNS): 2.65 µM
TGI (U251 CNS): 8.07 µM
GI50 (SR leukemia): 16.1 µM
TGI (SR leukemia): > 100 µM
GI50 (HCT-15 colon): 9.27 µM
TGI (HCT-15 colon): 89.3 µM
GI50 (SK-MEL-28 melanoma): 6.9 µM
TGI (SK-MEL-28 melanoma): 21.8 µM
GI50 (SK-MEL-5 melanoma): 12.8 µM
TGI (SK-MEL-5 melanoma): 33.4 µM
GI50 (IGROV1 ovarian): 7.58 µM
TGI (IGROV1 ovarian): 22.8 µM
GI50 (HCT-116 colon): 2.47 µM
TGI (HCT-116 colon): 6.77 µM
GI50 (SK-MEL-2 melanoma): 12.1 µM
TGI (SK-MEL-2 melanoma): 29.5 µM
GI50 (MCF7 breast): 8.44 µM
TGI (MCF7 breast): 35.1 µM
GI50 (OVCAR-8 ovarian): 6.96 µM
TGI (OVCAR-8 ovarian): 60.6 µM
GI50 (DU-145 prostate): 5.87 µM
TGI (DU-145 prostate): 18.8 µM
GI50 (KM12 colon): 26.5 µM
TGI (KM12 colon): > 100 µM
GI50 (MALME-3M melanoma): 3.63 µM
TGI (MALME-3M melanoma): 15 µM
GI50 (RPMI-8226 leukemia): 9.01 µM
TGI (RPMI-8226 leukemia): > 100 µM
GI50 (COLO 205 colon): 8.3 µM
TGI (COLO 205 colon): 35.2 µM
GI50 (HOP-92 NSCLC): 2.34 µM
TGI (HOP-92 NSCLC): 6.97 µM
GI50 (UO-31 renal): 1.79 µM
TGI (UO-31 renal): 3.84 µM
GI50 (UACC-62 melanoma): 8.63 µM
TGI (UACC-62 melanoma): 25.1 µM
GI50 (TK-10 renal): 2.4 µM
TGI (TK-10 renal): 6.39 µM
GI50 (CCRF-CEM leukemia): 9.65 µM
TGI (CCRF-CEM leukemia): > 100 µM
GI50 (RXF 393 renal): 2.42 µM
TGI (RXF 393 renal): 6.47 µM
GI50 (ACHN renal): 1.95 µM
TGI (ACHN renal): 3.83 µM
GI50 (MDA-MB-231 breast): 5.66 µM
TGI (MDA-MB-231 breast): 19.5 µM
GI50 (SF-268 CNS): 5.81 µM
TGI (SF-268 CNS): 36.9 µM
GI50 (SNB-75 CNS): 2 µM
TGI (SNB-75 CNS): 4.49 µM
GI50 (SF-539 CNS): 10.5 µM
TGI (SF-539 CNS): 22.8 µM
GI50 (MDA-MB-468 breast): 3.87 µM
TGI (MDA-MB-468 breast): 17.7 µM
GI50 (LOX IMVI melanoma): 4.65 µM
TGI (LOX IMVI melanoma): 22 µM
GI50 (A549 NSCLC): 3.02 µM
TGI (A549 NSCLC): 10.1 µM
GI50 (CAKI-1 renal): 2.02 µM
TGI (CAKI-1 renal): 4.62 µM
GI50 (OVCAR-4 ovarian): 1.8 µM
TGI (OVCAR-4 ovarian): 3.47 µM
GI50 (MDA-MB-435): 9.52 µM
TGI (MDA-MB-435): 31.3 µM
GI50 (SN12C renal): 2.36 µM
TGI (SN12C renal): 6.08 µM
GI50 (HL-60(TB) leukemia): 68.8 µM
TGI (HL-60(TB) leukemia): > 100 µM
GI50 (HT29 colon): 10.9 µM
TGI (HT29 colon): 25.5 µM
GI50 (A498 renal): 1.83 µM
TGI (A498 renal): 3.73 µM
GI50 (NCI-H226 lung): 1.8 µM
TGI (NCI-H226 lung): 4.61 µM
GI50 (MOLT-4 leukemia): 22.6 µM
TGI (MOLT-4 leukemia): > 100 µM
GI50 (NCI-H23 lung): 6.72 µM
TGI (NCI-H23 lung): 20.9 µM
GI50 (SW-620 colon): 5.59 µM
TGI (SW-620 colon): 22.9 µM
GI50 (M14 melanoma): 8.67 µM
TGI (M14 melanoma): 38 µM
GI50 (HCC-2998 colon): 5.46 µM
TGI (HCC-2998 colon): 19.7 µM
GI50 (BT-549 breast): 12.2 µM
TGI (BT-549 breast): 35.7 µM
GI50 (786-0 renal): 2.12 µM
TGI (786-0 renal): 4.63 µM
GI50 (NCI/ADR-RES ovarian): 4.03 µM
TGI (NCI/ADR-RES ovarian): 17.2 µM
GI50 (SF-295 CNS): 2.07 µM
TGI (SF-295 CNS): 4.86 µM
GI50 (EKVX NSCLC): 4.39 µM
TGI (EKVX NSCLC): 21.4 µM
GI50 (OVCAR-3 ovarian): 3.44 µM
TGI (OVCAR-3 ovarian): 11.2 µM
GI50 (SNB-19 CNS): 4.48 µM
TGI (SNB-19 CNS): 20.4 µM
GI50 (HS 578T breast): 3.19 µM
TGI (HS 578T breast): 15.1 µM
GI50 (PC-3 prostate): 5.43 µM
TGI (PC-3 prostate): 23.4 µM
GI50 (HOP-62 NSCLC): 1.93 µM
TGI (HOP-62 NSCLC): 4.04 µM
